Results taken from patent US20220218715A1, “NOVEL USE OF PYRROLO-PYRIDINE DERIVATIVE COMPOUND FOR PREVENTION AND/OR TREATMENT OF CANCER” (VORONOI CO., LTD., priority 2019, published 2022).

Experiments:
[1] = molecular target: T1, ALK(C1156Y) (Homo sapiens, UniProt Q9UM73, C1156Y); test: scanMAX Kinase analysis panel (DiscoverX); type: binding; conditions: 1 μM in DMSO
T1 construct: purchased DiscoverX
Source text: (§1) [(Example Compound−Positive Control)/(Negative Control−Positive Control)×100]

[2] = molecular target: T2, JNK3 (Homo sapiens, UniProt P53779); test: scanMAX Kinase analysis panel (DiscoverX); type: binding; conditions: 1 μM in DMSO
T2 construct: purchased DiscoverX scanMAX Kinase analysis panel
T2 sequence (P53779 whole entry): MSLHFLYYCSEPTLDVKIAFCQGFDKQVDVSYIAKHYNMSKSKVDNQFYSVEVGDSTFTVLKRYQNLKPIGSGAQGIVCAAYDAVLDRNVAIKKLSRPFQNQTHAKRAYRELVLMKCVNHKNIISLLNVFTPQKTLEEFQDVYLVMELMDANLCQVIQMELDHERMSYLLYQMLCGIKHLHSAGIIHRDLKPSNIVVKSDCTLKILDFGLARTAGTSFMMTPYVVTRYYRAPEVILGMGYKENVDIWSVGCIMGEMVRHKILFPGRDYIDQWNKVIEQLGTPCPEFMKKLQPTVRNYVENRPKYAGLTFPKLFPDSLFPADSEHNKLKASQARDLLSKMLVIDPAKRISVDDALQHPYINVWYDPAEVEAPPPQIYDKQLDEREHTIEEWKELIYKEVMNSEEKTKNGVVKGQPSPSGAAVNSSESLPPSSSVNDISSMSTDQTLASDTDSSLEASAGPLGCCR
Source text: as §1

[3] = molecular target: T3, JNK1 (Homo sapiens, UniProt P45983); test: scanMAX Kinase analysis panel (DiscoverX); type: binding; conditions: 1 μM in DMSO
T3 construct: purchased DiscoverX
T3 sequence (P45983 whole entry): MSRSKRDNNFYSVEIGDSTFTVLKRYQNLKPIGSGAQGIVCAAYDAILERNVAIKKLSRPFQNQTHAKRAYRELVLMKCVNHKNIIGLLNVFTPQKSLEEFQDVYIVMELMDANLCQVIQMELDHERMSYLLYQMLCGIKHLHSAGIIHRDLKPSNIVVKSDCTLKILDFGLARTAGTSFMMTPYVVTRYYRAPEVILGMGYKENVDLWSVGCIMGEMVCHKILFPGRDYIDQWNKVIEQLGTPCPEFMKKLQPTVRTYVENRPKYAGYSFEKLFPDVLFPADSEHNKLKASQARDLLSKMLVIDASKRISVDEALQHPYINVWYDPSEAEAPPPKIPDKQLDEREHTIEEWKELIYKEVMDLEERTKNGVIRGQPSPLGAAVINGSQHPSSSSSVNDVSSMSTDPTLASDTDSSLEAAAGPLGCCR
Source text: as §1

[4] = molecular target: T4, ALK (L1196M) (Homo sapiens, UniProt Q9UM73, L1196M); test: scanMAX Kinase analysis panel (DiscoverX); type: binding; conditions: 1 μM in DMSO
T4 construct: purchased DiscoverX
T4 sequence (Q9UM73 19-1620 L1196M): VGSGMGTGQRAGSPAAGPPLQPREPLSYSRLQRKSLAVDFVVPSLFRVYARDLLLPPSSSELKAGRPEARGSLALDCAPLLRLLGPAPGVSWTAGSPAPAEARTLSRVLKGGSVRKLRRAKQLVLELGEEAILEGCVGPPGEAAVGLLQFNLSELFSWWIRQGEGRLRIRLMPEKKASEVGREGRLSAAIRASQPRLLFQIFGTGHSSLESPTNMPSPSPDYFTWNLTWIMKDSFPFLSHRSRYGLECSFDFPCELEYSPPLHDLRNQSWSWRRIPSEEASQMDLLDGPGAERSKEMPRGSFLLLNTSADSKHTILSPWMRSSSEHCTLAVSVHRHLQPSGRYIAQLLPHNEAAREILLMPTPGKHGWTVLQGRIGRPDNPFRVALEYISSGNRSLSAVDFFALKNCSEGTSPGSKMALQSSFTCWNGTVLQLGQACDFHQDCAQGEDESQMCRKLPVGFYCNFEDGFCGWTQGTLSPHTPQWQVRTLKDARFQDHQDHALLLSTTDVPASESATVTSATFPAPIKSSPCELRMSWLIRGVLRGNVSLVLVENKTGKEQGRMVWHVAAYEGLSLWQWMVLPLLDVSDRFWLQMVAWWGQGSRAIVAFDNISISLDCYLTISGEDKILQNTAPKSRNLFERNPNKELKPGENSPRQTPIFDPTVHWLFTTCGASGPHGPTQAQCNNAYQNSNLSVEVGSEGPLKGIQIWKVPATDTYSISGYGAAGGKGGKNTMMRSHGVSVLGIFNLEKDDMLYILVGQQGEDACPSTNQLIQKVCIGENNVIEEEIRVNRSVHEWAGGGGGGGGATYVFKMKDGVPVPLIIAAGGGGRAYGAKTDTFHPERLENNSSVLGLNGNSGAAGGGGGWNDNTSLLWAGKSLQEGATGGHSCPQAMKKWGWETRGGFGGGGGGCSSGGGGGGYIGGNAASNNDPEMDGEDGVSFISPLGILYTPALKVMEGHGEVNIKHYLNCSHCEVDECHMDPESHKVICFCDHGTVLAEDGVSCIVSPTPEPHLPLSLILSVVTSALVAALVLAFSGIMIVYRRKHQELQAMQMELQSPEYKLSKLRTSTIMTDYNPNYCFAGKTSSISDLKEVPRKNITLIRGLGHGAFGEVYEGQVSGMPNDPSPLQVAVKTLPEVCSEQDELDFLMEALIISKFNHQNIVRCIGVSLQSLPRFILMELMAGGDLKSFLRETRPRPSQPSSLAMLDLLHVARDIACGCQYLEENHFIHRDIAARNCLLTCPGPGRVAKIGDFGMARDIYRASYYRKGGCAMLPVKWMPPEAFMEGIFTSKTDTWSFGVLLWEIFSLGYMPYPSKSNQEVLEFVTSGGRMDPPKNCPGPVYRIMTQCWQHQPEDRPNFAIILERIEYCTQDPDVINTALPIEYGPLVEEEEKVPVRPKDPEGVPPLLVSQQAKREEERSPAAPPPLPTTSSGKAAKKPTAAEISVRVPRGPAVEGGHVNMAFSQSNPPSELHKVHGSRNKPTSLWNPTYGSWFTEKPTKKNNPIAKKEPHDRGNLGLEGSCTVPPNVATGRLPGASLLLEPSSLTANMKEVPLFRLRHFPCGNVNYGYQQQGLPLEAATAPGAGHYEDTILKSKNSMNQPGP
Source text: as §1

[5] = molecular target: T5, cSNK1D (Homo sapiens, UniProt P48730); test: scanMAX Kinase analysis panel (DiscoverX); type: binding
T5 construct: purchased DiscoverX
T5 sequence (P48730 whole entry): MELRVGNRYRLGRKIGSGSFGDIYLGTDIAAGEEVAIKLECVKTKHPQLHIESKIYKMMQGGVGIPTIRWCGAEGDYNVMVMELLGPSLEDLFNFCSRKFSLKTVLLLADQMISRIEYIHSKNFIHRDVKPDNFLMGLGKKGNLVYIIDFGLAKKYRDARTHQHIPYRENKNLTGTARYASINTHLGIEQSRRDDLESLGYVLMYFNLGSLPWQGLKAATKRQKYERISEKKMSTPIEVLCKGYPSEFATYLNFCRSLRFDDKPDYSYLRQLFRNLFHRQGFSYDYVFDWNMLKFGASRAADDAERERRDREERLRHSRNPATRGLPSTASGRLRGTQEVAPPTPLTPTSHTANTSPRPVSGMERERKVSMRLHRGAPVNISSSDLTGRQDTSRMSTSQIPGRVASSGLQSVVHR
Source text: as §1

[6] = tested on: NCI-H1975 lung cancer cells; test: Anticancer effect in mouse model with NCI-H1975 lung cancer cells; type: in vivo, Balb/c Nude Mice
Description: The NCI-H1975 cell line was purchased from the Institute of Biochemistry and Cell Biology (Shanghai Institutes for Biological Sciences, CAS). Cells were kept in RPMI-1640 containing 10% FBS, and cultured in a 37° C. humidified cell culture incubator at 5% CO2. All animal experiments were carried out according to the Animal Use and Management Guidelines of Shanghai Medicilon Inc. […] Tumor size and animal body weight were measured twice weekly, and clinical symptoms were recorded daily. The mice will be administered individually according to most recent body weight. The tumors were measured using calipers using two measurements, length (a) and width (b). The volume of the tumors was calculated individually as follows, from the two measured diameters of the tumors: tumor volume (mm^3)=(a×b^2)/2.

[7] = tested on: MC38 colon cancer; test: Anticancer effect in MC38 colon cancer transplant mouse model; type: in vivo, female C57BL/6 mouse
Description: (§2) The 3LL cells were cultured in Hams F10:L15=3:7 culture medium, the EMT-6 cells were cultured in Waymouth's MB 752/1 culture medium, and the MC38 cells were cultured in a DMEM culture medium with 10% FBS and 1% penicillin streptomycin, at 37° C. in a 5% CO2 humidified cell culture incubator.
(§3) The mouse PD-1 antibody (BE-0146), PD-L1 antibody (BE-0101), and CTLA-4 antibody (BE-0131) were purchased from BioXcell.
(§4) All animal tests were carried out through WuXi AppTec.

[8] = tested on: PC-9 cell line; test: Lung cancer cell colony formation inhibition; type: cell-based, human; conditions: concomitant treatment with Gefitinib or Osimertinib, vs single treatment or Harmine, from 10 days, FIG. 1
Source text: Specifically, the PC-9 cell line was purchased from the ECACC (European Collection of Authenticated Cell Cultures), and RPMI-1640 with 10% FBS and 1% penicillin streptomycin was used. PC-9GR cells cultured with slow and sustained exposure to Gefitinib (manufactured by Selleckchem) were serially cultured with 1 μmol/L Gefitinib.
(§5) The remaining colony-forming cells were fixed with methanol (1%) and formaldehyde (1%), then dyed with 0.5% crystal violet before photographing each well.

[9] = tested on: H1975 cell line; test: Lung cancer cell colony formation inhibition; type: cell-based; conditions: concomitant treatment with Gefitinib or Osimertinib, vs single treatment or Harmine, from 10 days, FIG. 1
Source text: Specifically, the H1975 cell line was purchased from the ATCC (American Type Culture Collection, and RPMI-1640 with 10% FBS and 1% penicillin streptomycin was used.
as §5

[10] = tested on: NCI-H2228; test: EGFR expression and signalling after treatment, western blot; type: cell-based; conditions: FIG. 7
Description: (§6) For the Ba/F3 EGFR L858R/T790M/C797S cell line, Ba/F3 naive cells purchased from DSMZ were transfected with EGFR L858R/T790M/C797S […] DNA using lipofectamine, and a cell line selected using 1 μg/ml puromycin for 2 weeks was used. Here, the culture medium used was RPMI-1640 with 10% FBS and 1% penicillin streptomycin. The NCI-H2228 and CAL-27 cell lines were purchased from ATCC, and for culturing RPMI-1640 with 10% FBS and 1% penicillin streptomycin was used for NCI-H2228, while for CAL-27 DMEM with 10% FBS and 1% penicillin streptomycin was used.
(§7) As needed, culturing was performed for 1 hour with Cyclohexamine at 30 μg/mL concentration, followed by 15 minutes EGF treatment at a concentration of 100 ng/mL. For the phosphoarray experiment, DYRK1a siRNA was reacted with HEK293T cells for 48 hours at 30 nM concentration, confirming inhibition of DYRK1a expression in the cells. These were used as the control for the main experiment.

[11] = tested on: Ba/F3 EGFR L858R/T790M/C797S cells; test: Cell growth inhibition, celltiterglo; type: cell-based; conditions: 72 hours, concomitant use with Osimertinib, compared with same amount of Harmine, FIG. 8
Description: The cells were treated for 72 hours using a serially diluted compound. The cell activity inhibition results for the compounds were measured using celltiterglo.

[12] = tested on: 3LL lung cancer; test: Anticancer effect in 3LL lung cancer transplant mouse model; type: in vivo, female C57BL/6 mouse
Description: as §2, §3, §4

[13] = tested on: Ba/F3 EGFR L858R/T790M/C797S; test: EGFR expression after treatment, western blot; type: cell-based; conditions: 0.5, 1.2 and 5 μM, 4 or 24 hours, FIG. 7
Description: as §6, §7

[14] = tested on: EMT6 breast cancer; test: Anticancer effect in EMT6 breast cancer transplant mouse model; type: in vivo, female C57BL/6 mouse; conditions: singular treatment, 45, 60, 75 mg/kg po BID, FIG. 6a
Description: as §2, §4

[15] = tested on: PC-9 lung cancer cells; test: Anticancer effect in mouse model with PC-9 lung cancer cells; type: in vivo, Balb/c Nude Mice; conditions: PC-9 model
Description: The PC-9 cell line was purchased from NanJing Cobioer Biological Technology Co., Ltd. Cells were kept in RPMI-1640 containing 10% FBS, and cultured in a 37° C. humidified cell culture incubator at 5% […]. All animal experiments were carried out according to the Animal Use and Management Guidelines of Shanghai Medicilon Inc. Under sterile conditions, 2×10^6 PC-9 tumor cells (0.1 mL, cell:Matrigel®=1:1) was administered to the right waist of each animal by S.C. administration. Tumor size and animal body weight were measured twice weekly, and clinical symptoms were recorded daily. The mice will be administered individually according to most recent body weight. The tumors were measured using calipers using two measurements, length (a) and width (b). The volume of the tumors was calculated individually as follows, from the two measured diameters of the tumors: tumor volume (mm^3)=(a×b^2)/2.

[16] = tested on: CAL-27; test: EGFR expression after treatment, western blot or phosphoarray; type: cell-based; conditions: FIG. 7
Description: as §6, §7

[17] = singular treatment, 45, 60, 75 mg/kg po BID, FIG. 6a

T1 sequence (Q9UM73 19-1620 C1156Y): as the sequence (Q9UM73 19-1620 L1196M) above, with C1138Y, M1178L counted along it

inhibition at 1 µM [1]: ≥ 59% | inhibition at 1 µM [2]: 40 to 59% | inhibition at 1 µM [3]: ≥ 59% | inhibition at 1 µM [4]: ≥ 59% | inhibition at 1 µM [5]: ≥ 59%
Structure (SMILES): CCNc1cc(Nc2ccc(C(=O)N3CCC(N4CCOCC4)CC3)cc2OC)nc2[nH]cc(C(F)(F)F)c12 [Compound 1, (4-((4-(ethylamino)-3-(trifluoromethyl)-1H-pyrrolo[2,3-b]pyridine-6-yl)amino)-3-methoxyphenyl) (4-morpholinopiperidine-1-yl)methanone]
anticancer effect ([6]; Compound 1 40 or 60 mg/kg concomitant with Osimertinib 3.5 mg/kg, PO QD, vs Osimertinib alone, FIG. 5): substantially reduced lung cancer (NCI-H1975) cells | anticancer effect ([6]; singular treatment with Compound 1, 60 mg/kg PO QD): no anticancer effect | tumor suppression effect ([7]; concomitant with PD-1, PD-L1 and CTLA-4 antibodies 10 mg/kg IP BIW, FIG. 6c): improved concomitant effect | tumor suppression effect [7, 17]: insignificant tumor suppression effect | colony formation inhibition [8]: substantially inhibit formation of lung cancer cell colonies | colony formation inhibition [9]: substantially inhibit formation of lung cancer cell colonies | EGFR expression ([10]; 0.5, 1.2 and 5 μM, 4 or 24 hours): reduced EGFR expression | p-AKT (S473) [10]: reduction | p-Erk 1/2 (T202/Y204) [10]: reduction | cell growth inhibition effect [11]: improved cell growth inhibition effect compared to treatment with the same amount of Harmine | tumor suppression effect ([12]; concomitant with PD-1, PD-L1 and CTLA-4 antibodies 10 mg/kg IP BIW, FIG. 6b): improved concomitant effect | tumor suppression effect [12, 17]: insignificant tumor suppression effect | EGFR expression [13]: reduced EGFR expression | tumor suppression effect [14]: insignificant tumor suppression effect | anticancer effect ([15]; Compound 1 20 or 40 mg/kg concomitant with Gefitinib 10 mg/kg, PO QD, vs Gefitinib alone, FIG. 4): substantially reduced lung cancer (PC-9) cells | anticancer effect ([15]; Compound 1 20 or 40 mg/kg concomitant with Osimertinib 3 mg/kg, PO QD, vs Osimertinib alone, FIG. 3): substantially reduced lung cancer (PC-9) cells | anticancer effect ([15]; singular treatment with Compound 1, 40 mg/kg PO QD): no anticancer effect | EGFR expression [16]: reduced EGFR expression | p-EGFR (Y-1086) expression ([16]; phosphoarray, 2 μM, 48 hours): Reduction in expression
